Read-outs that look alike come from different tables or passages of the source.
What was measured:
[1] = pH-metric determination of pKa values (SiriusT3); type: physicochemical; conditions: methanol/ISA water cosolvent mixtures (0.15 M KCl), MeOH:ISA water cosolvent, extrapolated to 0% cosolvent, 25 °C, n=4
Procedure: pH-metric determination of pKa values
Experimental pKa was determined by pH-metric approaches using SiriusT3 (PIon Inc. Ltd, Forrest Row, UK) instrument which integrates a dispenser module equipped with precision dispensers, 0.5 mL syringes, a multi-tip capillary bundle, a titrator module, a microstirrer with variable speed, a combined double junction Ag/AgCl pH and reference electrode and a fibre optics dip probe connected to a deuterium UV pulsed light source and a photodiode array (PDA) detector, acquiring spectra in the 200-700 nm wavelength range. SiriusT3 Control software v 1.1.3.0 was employed for acquisition, while Sirius T3 Refine software v. 1.1.3.0 was used for data analysis. The glass microelectrode was standardized by means of a strong acid-strong base titration (0.5N HCl vs. 0.5N KOH) in the pH range 2.0-12.0 at fixed temperature (25±0.5°C) and I = 0.15 M for KCl addition, in N2 atmosphere. […]
The original method was described in a previous paper.e Briefly, a HPLC Thermo Fisher Scientific Dionex Ultimate 3000 instrument equipped with a Low-Pressure Mixing Gradient Pump LPG-3400 SD, ACC-3000 autosampler with termostatable column compartment, a DAD-3000 RS Detector and Chromeleon Data System Version 7.2.10 was used. […] The dead time, t0, was determined by monitoring the baseline disturbance. […]

[2] = log kW IAM (immobilized artificial membrane chromatography); type: physicochemical; conditions: lipophilicity descriptor, phospholipid interaction
From the text: (§1) Lipophilicity has been obtained in four different systems. BRlogD and ChromlogD are chromatographic surrogates of log Doct and, despite showing different values, are linearly correlated (Figure S4). Log k′ 80 PLRP-S is a surrogate of log Dtol. Log kw ^IAM mimics the interaction between the compounds and the phospholipids of membranes. The combination of the experimental lipophilicity descriptors is essential to evaluate lipophilicity in different regions of the membrane bilayer. This complete lipophilicity profile may give an idea of the permeability potential of poorly soluble compounds for which standard permeability measurements are unreliable. […] This is supported by its low IC50 value in the cell-based assay.

[3] = log k'80 PLRP-S chromatographic descriptor; type: physicochemical; conditions: surrogate of log Dtol
From the text: as §1

[4] = Δlog kW IAM polarity descriptor; type: physicochemical; conditions: polarity in aqueous medium
Procedure: Polarity is quantified by two descriptors: EPSA and Δlog kw ^IAM. The first is measured in an almost fully nonpolar environment, and the second describes polarity in an aqueous medium. […] This is also in line with the higher solubility of KIMCs over 1.

[5] = Chamelogk chameleonicity descriptor; type: physicochemical; conditions: >0.6 = chameleons, <0.6 = non-chameleons
Procedure: Finally, chameleonicity was measured with the recently described Chamelogk method (Table ), where 0.6 is the threshold value to distinguish chameleons from non-chameleons.

MDCK-WT wild-type cells [6] = tested on: MDCK-WT wild-type cells
in vitro = conditions: dog, MDCK, pH 7.4
[7] = MDCK-WT permeability assay; conditions: dog, MDCK, pH 7.4
MDCK-WT wild-type cells [8] = test: MDCK-WT permeability assay

In the case of `Cn1cc2c3nc(ncc31)Nc1cnn(c1)CCCNCCOc1ccc-2cc1` [Compound 5a], the pKa ([1]; read-out: pKa (basic), amino group (propan-1-amine)) is reported as 8.2, the pKa ([1]; read-out: pKa (basic), pyrrolo-pyrimidine moiety) is reported as 4.35 and the “log kW^IAM” value [2] is reported as 2.33. For the same compound, the “logk'80 PLRP-S” value [3] was -0.65, the “Δlog kW^IAM” value [4] was 2.77 and the Chamelogk [5] was 1.76. For the same compound, the “permeability in the MDCK model (in words)” value (shortened to “permeability”) (MDCK-WT wild-type cells [6]) was “highly permeable” and the Papp A→B at 1 h, 10 µM (in vitro) was 18.4 ± 0.6 ×10⁻⁶ cm/s.

In the case of `Cn1cc2c3nc(ncc31)Nc1cnn(c1)CCCNC(=O)COc1ccc-2cc1` [Compound 5b], the “log kW^IAM” value [2] is reported as 1.87, the “logk'80 PLRP-S” value [3] is reported as -0.68 and the “Δlog kW^IAM” value [4] is reported as 2.41. For the same compound, the Chamelogk [5] was 0.61, the Papp A→B at 1 h, 10 µM [7] was 21 ± 0.8 ×10⁻⁶ cm/s and the “permeability” value (MDCK-WT wild-type cells [8]) was “highly permeable”.

In the case of `c1cc2nc(n1)Nc1cnn(c1)CCCNCCOc1ccc(cc1)N2` [Compound 6a], the “log kW^IAM” value [2] is reported as 1.96, the “logk'80 PLRP-S” value [3] is reported as -0.93 and the “Δlog kW^IAM” value [4] is reported as 3.26. The Chamelogk [5] was 1.63, the “permeability” value (MDCK-WT wild-type cells [6]) was “moderately permeable” and the Papp A→B at 1 h, 10 µM (in vitro) was 5.8 ± 1.1 ×10⁻⁶ cm/s.

For `O=C1COc2ccc(cc2)Nc2ccnc(n2)Nc2cnn(c2)CCCN1` [Compound 6b], the “log kW^IAM” value [2] was 1.53, the “logk'80 PLRP-S” value [3] was -0.85 and the “Δlog kW^IAM” value [4] was 2.58. The Chamelogk [5] was 1.95, the Papp A→B at 1 h, 10 µM [7] was 4.8 ± 1 ×10⁻⁶ cm/s and the “permeability” value (MDCK-WT wild-type cells [8]) was “moderately permeable”.

— article PMC12067128, “Macrocyclization: Enhancing Drug-like Properties of Discoidin Domain Receptor Kinase Inhibitors” (ACS Medicinal Chemistry Letters, 2025)
